Experimental data published in the supplement of paper PMC11061612.

Key:
HOS (Osteosarcoma) [1] = experiment: Bliss excess, mean over the matrix (fraction); higher = more synergy
Method in brief: (§1)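 Cell lines in DMEM/F12 or RPMI with 10% FBS were plated in 1536-well plates, held 24 hours at 37°C, 5% CO2, then given two-drug dose matrices for 72 hours (DMSO typically 0.2%). Viability was read by CellTiter-Glo 2.0 luminescence and scaled as inhibition from 0 (vehicle wells) to 1 (blank wells). Combination Emax is the second-highest inhibition in the matrix; Bliss excess is observed combination effect minus expected EA + EB − EA·EB, EA and EB being single-agent effects.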

[2] = system: HT-1376 (Bladder Carcinoma); experiment: as above
Method in brief: as §1

[3] = system: KURAMOCHI (Ovarian Carcinoma); experiment: as above
Method in brief: as §1

T98G (Glioblastoma) [4] = experiment: as above
Method in brief: as §1

[5] = system: CCRF-CEM (T-Lymphoblastic Leukemia); experiment: combination Emax (second highest fraction inhibited in the dose matrix, 72 h); higher = more inhibition; extreme values may be limits of the assay
Method in brief: as §1

[6] = system: DoTc2-4510 (Cervical Carcinoma); experiment: as above
Method in brief: as §1

[7] = system: HO-1-N-1 (Oral Cavity Carcinoma); experiment: as above
Method in brief: as §1

HOS (Osteosarcoma) [8] = experiment: as above
Method in brief: as §1

[9] = system: HT-1376 (Bladder Carcinoma); experiment: as above
Method in brief: as §1

[10] = system: Hs-578-T (Breast Carcinoma); experiment: as above
Method in brief: as §1

[11] = system: LB831-BLC (Bladder Carcinoma); experiment: as above
Method in brief: as §1

[12] = system: LS-180 (Colorectal Carcinoma); experiment: as above
Method in brief: as §1

NB10 (Neuroblastoma) = experiment: as above
Method in brief: as §1

[13] = system: NCI-H2085 (Non-Small Cell Lung Carcinoma); experiment: as above
Method in brief: as §1

[14] = system: NCI-H82 (Small Cell Lung Carcinoma); experiment: as above
Method in brief: as §1

[15] = system: RO82-W-1 (Thyroid Gland Carcinoma); experiment: as above
Method in brief: as §1

T98G (Glioblastoma) [16] = experiment: as above
Method in brief: as §1

[17] = system: TE-15 (Esophageal Squamous Cell Carcinoma); experiment: as above
Method in brief: as §1

[18] = system: TE-9 (Esophageal Squamous Cell Carcinoma); experiment: as above
Method in brief: as §1

[19] = system: UM-UC-3 (Bladder Carcinoma); experiment: as above
Method in brief: as §1
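Wherever Bliss excess, mean over the matrix is given: after 72 h of two-drug dosing.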

Row | SMILES | Bliss excess (HOS (Osteosarcoma) [1]) | Bliss excess [2] | Bliss excess [3] | Bliss excess (T98G (Glioblastoma) [4]) | combination Emax [5] | combination Emax [6] | combination Emax [7] | combination Emax (HOS (Osteosarcoma) [8]) | combination Emax [9] | combination Emax [10] | combination Emax [11] | combination Emax [12] | combination Emax (NB10 (Neuroblastoma)) | combination Emax [13] | combination Emax [14] | combination Emax [15] | combination Emax (T98G (Glioblastoma) [16]) | combination Emax [17] | combination Emax [18] | combination Emax [19]
1 | CN(CCO)CC[C@H](CSc1ccccc1)Nc1ccc(S(=O)(=O)NC(=O)c2ccc(N3CCC([C@@H](O)c4ccccc4-c4ccc(Cl)cc4)CC3)cc2)cc1S(=O)(=O)C(F)(F)F [AZD4320] + CS(=O)(=O)CCNCc1ccc(-c2ccc3ncnc(Nc4ccc(OCc5cccc(F)c5)c(Cl)c4)c3c2)o1 [Lapatinib] (first compound max 1 µM, 7x7, partner max 10 µM) | -0.0381 | 0.0125 | 0.0392 | 0.0029 | 1 | 0.974 | 0.97 | 0.348 | 0.508 | 0.99 | 0.858 | 0.505 | 0.705 | 0.807 | 0.69 | 0.646 | 0.741 | 0.761 | 0.931 | 0.392
2 | Cc1nc(-c2cn3c(n2)-c2ccc(-c4cnn(C(C)(C)C(N)=O)c4)cc2OCC3)n(C(C)C)n1 [Taselisib] + O=C(Nc1ccc2[nH]nc(-c3ccncc3)c2c1)[C@@H]1CCN(CC(=O)N2CCN(c3ccc(-c4ncccn4)cc3)CC2)C1 [SCH772984] (first compound max 10 µM, 7x7, partner max 5 µM) | 0.0044 | -0.0046 | 0.0721 | 0.0838 | 0.611 | 0.691 | 0.999 | 0.564 | 0.227 | 0.89 | 0.641 | 0.867 | 0.791 | 0.603 | 0.429 | 0.193 | 0.851 | 0.832 | 0.691 | 0.716
3 | O=C(c1cc(Cc2n[nH]c(=O)c3ccccc23)ccc1F)N1CCN(C(=O)C2CC2)CC1 [Olaparib] + Cc1c2c(nn1C)CSCc1cc(n(C)n1)CSc1cc(c3ccccc3c1)OCCCc1c(C(=O)O)n(C)c3c-2c(Cl)ccc13 [AZD5991] (first compound max 10 µM, 7x7, partner max 1 µM) | -0.0292 | -0.0392 | -0.0546 | -0.0277 | 0.271 | 0.224 | 0.78 | 0.254 | 0.0928 | 0.489 | 0.136 | 0.221 | 0.437 | 0.0831 | 0.899 | 0.147 | 0.223 | 0.29 | 0.202 | 0.0695
4 | C[C@@H](Nc1cc(F)cc(F)c1)c1cc(C(=O)N(C)C)cc2c(=O)cc(N3CCOCC3)oc12 [AZD8186] + C1CN(CCC1(C(=O)N[C@@H](CCO)C2=CC=C(C=C2)Cl)N)C3=NC=NC4=C3C=CN4 [AZD5363] (first compound max 10 µM, 7x7, partner max 10 µM) | -0.0447 | -0.0404 | -0.037 | 0.0381 | 0.411 | 0.286 | 0.54 | 0.336 | 0.116 | 0.7 | 0.442 | 0.419 | 0.228 | 0.542 | 0.358 | 0.201 | 0.562 | 0.496 | 0.198 | 0.4
5 | N#Cc1cnc(Nc2cc(NC[C@H]3CNCCO3)c(C(F)(F)F)cn2)cn1 [SRA737] + C=CCn1c(=O)c2cnc(Nc3ccc(N4CCN(C)CC4)cc3)nc2n1-c1cccc(C(C)(C)O)n1 [AZD1775] (first compound max 10 µM, partner max 1 µM) | 0.06 | 0.0357 | -0.0194 | 0.0169 | 0.995 | 0.725 | 0.666 | 0.811 | 0.387 | 0.783 | 0.721 | 0.758 | 0.84 | 0.882 | 0.985 | 0.116 | 0.9 | 0.821 | 0.7 | 0.471
6 | O=C(c1cc(Cc2n[nH]c(=O)c3ccccc23)ccc1F)N1CCN(C(=O)C2CC2)CC1 [Olaparib] + COc1nnc2ccc(N3CCC(c4ccc(OCCN5CCN(C)C(=O)[C@H]5C)cc4)CC3)nn12 [AZD5153] (first compound max 10 µM, 7x7, partner max 1 µM) | -0.057 | -0.0425 | -0.0231 | -0.0501 | 0.714 | 0.263 | 0.604 | 0.402 | 0.0928 | 0.729 | 0.465 | 0.581 | 0.406 | 0.383 | 0.535 | 0.274 | 0.408 | 0.516 | 0.189 | 0.359
7 | CS(=O)(=O)CCNCc1ccc(-c2ccc3ncnc(Nc4ccc(OCc5cccc(F)c5)c(Cl)c4)c3c2)o1 [Lapatinib] + Cn1cnc2c(F)c(Nc3ccc(Br)cc3Cl)c(C(=O)NOCCO)cc21 [Selumetinib] (first compound max 10 µM, 7x7, partner max 10 µM) | -0.0848 | 0.0188 | -0.0116 | 0.0075 | 0.46 | 0.597 | 0.956 | 0.332 | 0.287 | 0.69 | 0.379 | 0.758 | 0.481 | 0.341 | 0.416 | 0.193 | 0.25 | 0.775 | 0.149 | 0.306
8 | Cc1c2c(nn1C)CSCc1cc(n(C)n1)CSc1cc(c3ccccc3c1)OCCCc1c(C(=O)O)n(C)c3c-2c(Cl)ccc13 [AZD5991] + CC(=O)O[C@H]1C(=O)[C@@]2(C)[C@H]([C@H](OC(=O)c3ccccc3)[C@]3(O)C[C@H](OC(=O)[C@H](O)[C@@H](NC(=O)c4ccccc4)c4ccccc4)C(C)=C1C3(C)C)[C@]1(OC(C)=O)CO[C@@H]1C[C@@H]2O [Paclitaxel] (first compound max 1 µM, 7x7, partner max 3 µM) | 0.103 | -0.0424 | 0.0479 | -0.0798 | 0.992 | 0.544 | 1 | 0.964 | 0.0587 | 0.988 | 0.733 | 0.822 | 0.915 | 0.743 | 0.997 | 0.401 | 0.883 | 0.998 | 0.789 | 0.745
9 | C=CCn1c(=O)c2cnc(Nc3ccc(N4CCN(C)CC4)cc3)nc2n1-c1cccc(C(C)(C)O)n1 [AZD1775] + CCc1c2c(nc3ccc(O)cc13)-c1cc3c(c(=O)n1C2)COC(=O)[C@]3(O)CC [SN-38] (first compound max 1 µM, partner max 0.3 µM) | -0.0934 | -0.0194 | -0.0053 | 0.0057 | 1 | 0.92 | 0.978 | 0.849 | 0.342 | 0.855 | 0.875 | 0.806 | 0.853 | 0.523 | 0.965 | 0.263 | 0.95 | 0.939 | 0.496 | 0.954
10 | O=C(c1cc(Cc2n[nH]c(=O)c3ccccc23)ccc1F)N1CCN(C(=O)C2CC2)CC1 [Olaparib] + CC1(C)CCC(CN2CCN(c3ccc(C(=O)NS(=O)(=O)c4ccc(NCC5CCOCC5)c([N+](=O)[O-])c4)c(Oc4cnc5[nH]ccc5c4)c3)CC2)=C(c2ccc(Cl)cc2)C1 [Venetoclax] (first compound max 10 µM, 7x7, partner max 1 µM) | -0.0626 | -0.0522 | -0.0482 | -0.0269 | 0.209 | 0.259 | 0.221 | 0.22 | 0.0615 | 0.308 | 0.247 | 0.203 | 0.348 | 0.0675 | 0.395 | 0.129 | 0.123 | 0.251 | 0.171 | 0.0664
11 | N#Cc1cnc(Nc2cc(NC[C@H]3CNCCO3)c(C(F)(F)F)cn2)cn1 [SRA737] + CCc1c2c(nc3ccc(O)cc13)-c1cc3c(c(=O)n1C2)COC(=O)[C@]3(O)CC [SN-38] (first compound max 10 µM, 7x7, partner max 0.3 µM) | 0.0136 | 0.0047 | -0.0093 | 0.0065 | 1 | 0.936 | 0.975 | 0.849 | 0.566 | 0.804 | 0.904 | 0.74 | 0.769 | 0.665 | 0.967 | 0.214 | 0.921 | 0.931 | 0.589 | 0.967
12 | C[C@@H](Oc1cc(-c2cnn(C3CCNCC3)c2)cnc1N)c1c(Cl)ccc(F)c1Cl [Crizotinib] + Cn1cnc2c(F)c(Nc3ccc(Br)cc3Cl)c(C(=O)NOCCO)cc21 [Selumetinib] (first compound max 10 µM, 7x7, partner max 10 µM) | -0.0566 | -0.0419 | -0.0483 | -0.0578 | 0.854 | 0.292 | 0.769 | 0.457 | 0.0756 | 0.512 | 0.55 | 0.717 | 0.872 | 0.545 | 0.787 | 0.197 | 0.427 | 0.406 | 0.167 | 0.346
13 | C[C@@H](Oc1cc(-c2cnn(C3CCNCC3)c2)cnc1N)c1c(Cl)ccc(F)c1Cl [Crizotinib] + CC1=C(C(=CC=C1)Cl)NC(=O)C2=CN=C(S2)NC3=CC(=NC(=N3)C)N4CCN(CC4)CCO [Dasatinib] (first compound max 10 µM, 7x7, partner max 2 µM) | -0.0153 | -0.0104 | -0.0038 | 0.0943 | 0.911 | 0.897 | 0.972 | 0.756 | 0.418 | 0.961 | 0.921 | 0.585 | 0.792 | 1 | 0.875 | 0.618 | 0.971 | 0.79 | 0.691 | 0.716
